The source of these data is ChEMBL document CHEMBL4265957, “The development of piperidinones as potent MDM2-P53 protein-protein interaction inhibitors for cancer therapy” (Eur J Med Chem, 2018).

The test system of one test is SJSA-1. The experiment in a line: cells. The note with it: Homo sapiens.
For test [1], the target named is E3 ubiquitin-protein ligase Mdm2 (Homo sapiens, UniProt Q00987). The experiment in a line: Inhibition of MDM2 (unknown origin).
Sequence of E3 ubiquitin-protein ligase Mdm2 (Q00987 whole entry): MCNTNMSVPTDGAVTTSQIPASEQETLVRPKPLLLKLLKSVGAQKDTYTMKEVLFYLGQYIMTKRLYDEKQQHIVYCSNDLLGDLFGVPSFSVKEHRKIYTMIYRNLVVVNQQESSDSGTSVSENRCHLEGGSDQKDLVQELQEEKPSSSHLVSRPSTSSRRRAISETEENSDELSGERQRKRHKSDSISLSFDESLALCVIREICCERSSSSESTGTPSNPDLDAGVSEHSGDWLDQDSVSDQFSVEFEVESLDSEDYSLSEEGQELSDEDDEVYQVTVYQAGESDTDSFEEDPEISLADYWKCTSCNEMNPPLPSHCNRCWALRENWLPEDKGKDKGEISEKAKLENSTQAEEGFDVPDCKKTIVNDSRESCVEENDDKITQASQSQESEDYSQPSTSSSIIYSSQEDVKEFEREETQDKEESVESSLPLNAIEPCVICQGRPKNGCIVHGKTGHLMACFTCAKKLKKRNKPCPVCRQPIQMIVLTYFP

In general, IC50 refers to the concentration that inhibits the measured activity by half. Lower therefore signals greater potency. Take `CN(C[C@H](C1CC1)N1C(=O)[C@@](C)(CC(=O)O)C[C@H](c2cccc(Cl)c2)[C@H]1c1ccc(Cl)cc1)S(=O)(=O)C1CC1`: 5 nM corresponded to half-maximal inhibition in the test on SJSA-1 (IC50). In test [1], `CC1(C)CCC2(CC1)N[C@@H](C(=O)N[C@@H]1CC[C@@H](C(N)=O)OC1)[C@H](c1ccnc(Cl)c1F)[C@]21C(=O)Nc2cc(Cl)ccc21` gave an IC50 of 5.57 nM. With `Nc1ccn([C@@H]2O[C@H](CO)[C@@H](O)[C@@H]2O)c(=O)n1` [CYTARABINE], in test [1], half-maximal inhibition (IC50) required 20 nM.
